Assay [1] concerns the target Histone deacetylase 1 (Homo sapiens, UniProt Q13547). The assay can be described thus: Inhibition of HDAC1 (unknown origin).
Assay [2] has as its target Histone deacetylase 2 (Homo sapiens, UniProt Q92769). The assay can be described thus: Inhibition of HDAC2 (unknown origin).
Assay [3] has as its target Histone deacetylase 3 (Homo sapiens, UniProt O15379). The assay can be described thus: Inhibition of HDAC3 (unknown origin).
Assay [4] concerns the target T1, Histone deacetylase 8 (Homo sapiens, UniProt Q9BY41).
T1 sequence (Q9BY41 whole entry): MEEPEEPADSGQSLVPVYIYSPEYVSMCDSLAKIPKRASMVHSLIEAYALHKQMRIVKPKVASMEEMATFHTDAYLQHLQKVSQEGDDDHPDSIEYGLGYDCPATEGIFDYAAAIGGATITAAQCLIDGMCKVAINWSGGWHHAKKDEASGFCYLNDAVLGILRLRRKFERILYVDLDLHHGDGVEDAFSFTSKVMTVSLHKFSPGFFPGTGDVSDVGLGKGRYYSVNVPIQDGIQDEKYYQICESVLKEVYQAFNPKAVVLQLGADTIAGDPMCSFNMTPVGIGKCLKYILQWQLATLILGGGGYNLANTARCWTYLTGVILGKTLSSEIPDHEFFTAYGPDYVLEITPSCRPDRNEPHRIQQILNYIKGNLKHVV
The assay can be described thus: Inhibition of HDAC8 (unknown origin).

Assay [5] has as its target T2, Histone deacetylase 11 (Homo sapiens, UniProt Q96DB2).
T2 sequence (Q96DB2 whole entry): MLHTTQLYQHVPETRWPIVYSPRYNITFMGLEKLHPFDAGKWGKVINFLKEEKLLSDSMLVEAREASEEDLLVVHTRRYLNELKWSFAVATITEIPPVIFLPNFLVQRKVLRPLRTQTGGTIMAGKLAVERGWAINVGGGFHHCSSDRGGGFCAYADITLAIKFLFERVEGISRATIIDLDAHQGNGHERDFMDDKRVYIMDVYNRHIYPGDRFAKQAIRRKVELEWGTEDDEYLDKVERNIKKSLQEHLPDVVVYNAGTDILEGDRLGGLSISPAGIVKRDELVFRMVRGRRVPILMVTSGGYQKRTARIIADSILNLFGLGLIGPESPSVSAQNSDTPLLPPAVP
The assay can be described thus: Inhibition of HDAC11 (unknown origin).

The test system of assay [6] is U-937. The assay can be described thus: Antiproliferative activity against human U-937 cells assessed as cell growth inhibition after 72 hrs by CCK8 assay. Format: functional, cell-based. As to conditions: U-937, 72 h. For orientation: Tetrazolium dyes change colour on reduction, which living cells bring about.
Assay [7] relates to A549. The assay can be described thus: Antiproliferative activity against human A549 cells assessed as cell growth inhibition after 72 hrs by SRB assay. The class given is functional, cell-based. As to conditions: A549, 72 h. In general terms: The SRB assay estimates cell density from bound dye.
For assay [8], the system named is MGC-803. The assay can be described thus: Antiproliferative activity against human MGC-803 cells assessed as cell growth inhibition after 72 hrs by SRB assay. As to conditions: MGC-803, 72 h. The class given is functional, cell-based.
Assay [9] deals with HepG2. The assay can be described thus: Antiproliferative activity against human HepG2 cells assessed as cell growth inhibition after 72 hrs by SRB assay. The class given is functional, cell-based. As to conditions: HepG2, 72 h.
Assay [10] concerns MCF7. The assay can be described thus: Antiproliferative activity against human MCF7 cells assessed as cell growth inhibition after 72 hrs by SRB assay. Format: functional, cell-based. To be noted: MCF7, 72 h.
The test system of assay [11] is HeLa. The assay can be described thus: Antiproliferative activity against human HeLa cells assessed as cell growth inhibition after 72 hrs by SRB assay. Format: functional, cell-based.
Assay [12] concerns the target Histone deacetylase. The assay can be described thus: Inhibition of HDAC (unknown origin). The class given is protein assay, Homo sapiens.
Assay [13] deals with Tubulin. The assay can be described thus: Inhibition of tubulin polymerization (unknown origin) measured after 1 min by fluorescence assay. The class given is protein-complex assay, Homo sapiens.
Assay [14] relates to MGC-803. The assay can be described thus: Induction of cell cycle arrest in human MGC-803 cells assessed as accumulation at G2/M phase at 2 nM incubated for 24 hrs by propidium iodide staining based flow cytometry (reference value: 28.59 %). The class given is functional.
The subject of assay [15] is MGC-803. The assay can be described thus: Induction of cell cycle arrest in human MGC-803 cells assessed as accumulation at S phase at 2 nM incubated for 24 hrs by propidium iodide staining based flow cytometry (Rvb =31.51 %). Format: functional. (In flow cytometry, cells or beads pass a laser one at a time.)
The subject of assay [16] is MGC-803. The assay can be described thus: Induction of cell cycle arrest in human MGC-803 cells assessed as accumulation at G1 phase at 2 nM incubated for 24 hrs by propidium iodide staining based flow cytometry (Rvb =39.64 %). The class given is functional.
Assay [17] concerns MGC-803. The assay can be described thus: Induction of apoptosis in human MGC-803 cells assessed as early apoptotic cells at 2 nM measured after 48 hrs by Annexin V-APC/PI double staining based flow cytometry assay (reference value: 2.42 %). Format: functional, cell-based.
Assay [18] relates to MGC-803. The assay can be described thus: Induction of apoptosis in human MGC-803 cells assessed as late apoptotic cells at 2 nM measured after 48 hrs by Annexin V-APC/PI double staining based flow cytometry assay (reference value: 3.62 %). The class given is functional, cell-based.
The subject of assay [19] is MGC-803. The assay can be described thus: Induction of apoptosis in human MGC-803 cells assessed as necrotic cells at 2 nM measured after 48 hrs by Annexin V-APC/PI double staining based flow cytometry assay (reference value: 0.44%). Format: functional, cell-based.
Assay [20] relates to MGC-803. The assay can be described thus: Induction of apoptosis in human MGC-803 cells assessed as viable cells at 2 nM measured after 48 hrs by Annexin V-APC/PI double staining based flow cytometry assay (Rvb =93.5 %). Format: functional, cell-based.

The source made the active and inactive calls. The rule behind the calls is not given here.

Sequence of Histone deacetylase 2 (Q92769 whole entry): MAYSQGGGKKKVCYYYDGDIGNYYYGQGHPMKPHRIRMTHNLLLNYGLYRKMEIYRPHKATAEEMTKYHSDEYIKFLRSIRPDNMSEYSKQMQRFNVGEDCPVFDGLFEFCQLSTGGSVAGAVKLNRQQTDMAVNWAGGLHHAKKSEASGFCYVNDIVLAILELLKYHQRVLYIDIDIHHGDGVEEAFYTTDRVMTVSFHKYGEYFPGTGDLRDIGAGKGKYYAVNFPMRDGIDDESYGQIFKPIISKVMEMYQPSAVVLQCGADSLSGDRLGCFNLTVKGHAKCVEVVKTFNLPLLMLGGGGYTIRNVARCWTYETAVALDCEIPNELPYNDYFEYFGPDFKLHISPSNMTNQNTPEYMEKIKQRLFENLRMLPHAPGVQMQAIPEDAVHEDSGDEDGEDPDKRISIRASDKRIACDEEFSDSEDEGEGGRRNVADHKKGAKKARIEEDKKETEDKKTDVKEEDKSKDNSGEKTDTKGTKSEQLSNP
Sequence of Histone deacetylase 3 (O15379 whole entry): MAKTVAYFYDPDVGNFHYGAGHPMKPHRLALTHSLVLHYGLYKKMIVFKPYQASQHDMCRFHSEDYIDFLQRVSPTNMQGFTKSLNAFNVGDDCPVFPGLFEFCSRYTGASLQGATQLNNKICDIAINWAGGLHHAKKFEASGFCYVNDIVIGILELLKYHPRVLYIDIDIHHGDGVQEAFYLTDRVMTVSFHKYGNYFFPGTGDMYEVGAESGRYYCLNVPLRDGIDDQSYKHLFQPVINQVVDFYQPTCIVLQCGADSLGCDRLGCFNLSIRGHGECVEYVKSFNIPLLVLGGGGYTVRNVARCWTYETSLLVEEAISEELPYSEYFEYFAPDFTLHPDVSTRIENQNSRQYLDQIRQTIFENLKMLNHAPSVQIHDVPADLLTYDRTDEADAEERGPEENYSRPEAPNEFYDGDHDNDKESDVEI
Sequence of Histone deacetylase 1 (Q13547 whole entry): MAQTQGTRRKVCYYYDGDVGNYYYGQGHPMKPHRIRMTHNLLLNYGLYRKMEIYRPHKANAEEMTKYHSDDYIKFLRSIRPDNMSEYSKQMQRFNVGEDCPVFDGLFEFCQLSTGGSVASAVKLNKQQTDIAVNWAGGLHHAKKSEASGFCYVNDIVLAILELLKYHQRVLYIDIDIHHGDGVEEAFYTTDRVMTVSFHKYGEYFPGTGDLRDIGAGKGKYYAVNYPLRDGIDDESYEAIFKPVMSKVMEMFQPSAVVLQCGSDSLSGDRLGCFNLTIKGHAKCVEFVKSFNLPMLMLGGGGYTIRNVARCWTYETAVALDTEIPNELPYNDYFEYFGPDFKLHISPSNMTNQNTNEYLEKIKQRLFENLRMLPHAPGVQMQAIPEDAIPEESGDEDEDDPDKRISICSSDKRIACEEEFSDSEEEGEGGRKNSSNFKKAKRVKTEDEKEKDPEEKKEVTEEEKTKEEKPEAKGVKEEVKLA

Take `O=C(NCC1(c2nc(-c3ccccc3)cs2)CCOCC1)c1cccc(-c2noc(C(F)(F)F)n2)c1`: the IC50 result in [1], in assay [2], in [3], in assay [4] and in assay [5] was “Not Active” in each case.
Regarding `COc1ccc(/C=C\c2cc(OC)c(OC)c(OC)c2)cc1OCc1ccc(C(=O)NO)cc1`, the IC50 was 389 nM in [6]; 0.44 µM in assay [7]; 182 nM in [8]; 1330 nM in assay [9]; 817 nM in assay [10]; 440 nM in [11]. Moreover, the IC50 was found to be 0.39 µM in [12] and 8.6 µM in assay [13] (read-out: IC50).
On to `O=C(CCCCCCC(=O)Nc1ccccc1)NO` [VORINOSTAT], for which the IC50 result in assay [13] is given as “Not Active”.
Regarding `COc1ccc(C(=O)c2cc(OC)c(OC)c(OC)c2)cc1OCC(=O)NO`, the IC50 in [6] is 1130 nM; in [7], greater than 5 µM; in assay [8] it was 105 nM; in assay [9], 521 nM; in assay [10] it was 189 nM; in [11] it was 753 nM. Moreover, the IC50 was 0.25 µM in [12] and 19.6 µM in [13] (read-out: IC50).
`COc1ccc(/C=C\c2cc(OC)c(OC)c(OC)c2)cc1OCCCC(=O)NO`: the IC50 is 2540 nM in [6]; 0.371 µM in [7]; 63 nM in [8]; 81 nM in assay [9]; 982 nM in [10]; 31 nM in assay [11]. The IC50 is 1.4 µM in assay [12] and 5.2 µM in [13] (read-out: IC50).
For `COc1ccc(/C=C\c2cc(OC)c(OC)c(OC)c2)cc1O` [COMBRETASTATIN A4], the figures for the IC50 in assay [6], in [8] and in assay [11] were 1 nM, 2 nM and 9 nM, respectively. Further, the Activity result in assay [14] is “Dose-Dependent Effect”; in assay [14] (record 2) it was 28.25%; in [15] it was 31.58%; in assay [16], 40.88%. In addition, the outcome in [17], in [18], in [19] and in assay [20] was Active.
Turning to `COc1ccc(/C=C\c2cc(OC)c(OC)c(OC)c2)cc1Oc1ccc(C(C)(C)C(=O)NO)cc1`, the IC50 in assay [6] is greater than 5000 nM; in [7], greater than 5 µM; in assay [8], greater than 5000 nM; in [9], greater than 5000 nM; in [10] it was greater than 5000 nM; in assay [11], greater than 5000 nM.
`COc1ccc(C(=O)c2cc(OC)c(OC)c(OC)c2)cc1OCCCC(=O)NO`: the IC50 in [6] was greater than 5000 nM; in assay [7], greater than 5 µM; in [8] it was greater than 5000 nM; in assay [9], greater than 5000 nM; in assay [10], greater than 5000 nM; in assay [11], greater than 5000 nM.
With `COc1ccc(C(=O)c2cc(OC)c(OC)c(OC)c2)cc1OCc1ccc(C(=O)Nc2ccccc2N)cc1`, the IC50 in assay [6] was greater than 5000 nM; in assay [7], greater than 5 µM; in [8], greater than 5000 nM; in [9], greater than 5000 nM; in assay [10], greater than 5000 nM; in [11], greater than 5000 nM.
As to `COc1ccc(C(=O)c2cc(OC)c(OC)c(OC)c2)cc1Oc1ccc(C(=O)Nc2ccccc2N)cn1`, the half-inhibitory concentration (IC50) in assay [6] was greater than 5000 nM; in [7] it was greater than 5 µM; in assay [8], greater than 5000 nM; in assay [9], greater than 5000 nM; in assay [10] it was greater than 5000 nM; in assay [11] it was greater than 5000 nM.
On to `COc1ccc(C(=O)c2cc(OC)c(OC)c(OC)c2)cc1Oc1ccc(C(=O)NO)cc1`, for which the IC50 in assay [6] was greater than 5000 nM; in assay [7] it was greater than 5 µM; in assay [8], greater than 5000 nM; in assay [9], greater than 5000 nM; in [10], greater than 5000 nM; in assay [11], greater than 5000 nM.

Usually IC50 stands for the point on the concentration scale where inhibition reaches its midpoint.

These data come from ChEMBL document CHEMBL4828751, “Discovery of novel tubulin/HDAC dual-targeting inhibitors with strong antitumor and antiangiogenic potency” (Eur J Med Chem, 2021).
